Experimental data: patent US20240415819A1, “MACROCYCLIC COMPOUNDS AS PROTEASOME SUBUNIT BETA TYPE-5 INHIBITORS” (Lead Discovery Center GmbH, priority 2021, published 2024)

Experiments:
[1] = target: T1, β5 subunit of the human constitutive proteasome (CPS) (Homo sapiens, UniProt P28074); assay: β5 inhibition assay, human constitutive proteasome (Suc-LLVY-AMC); type: biochemical; settings: IC50 class, Suc-LLVY-AMC substrate
T1 construct: purchased Boston Biochem E-360
Method: The enzymatic activity of the β5 subunit of the human constitutive proteasome (CPS) is analyzed. In another assay, which differs from the assay of the human constitutive proteasome only in using the human immunoproteasome (IPS) the enzymatic activity of the β5 subunit of the human immunoproteasome (IPS) is analyzed. […] Inhibition is indicated as IC50 [nM] (“-”=not measured).

HT-29 cells = assay: CellTiter-Glo luminescent cell viability assay with HT-29 cells (72h incubation); type: cell-based, human; settings: Homo sapiens, HT-29, HT29 cells, read-out: CTG HT29
How it was run: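 Viability read as CellTiter-Glo luminescence after 72 h compound exposure, with 10 μM staurosporine and DMSO as control wells. Seeding 400 cells per well, compound added 24 h post-plating; IC50 from curve fitting.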

hPMBC = assay: Chymotrypsin-like ProteasomeGlo assay in hPBMC; type: cell-based; settings: Homo sapiens; read-out: Pglo hPBMC
How it was run: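 IC50 derived from luminescent chymotrypsin-like proteasome activity (Suc-LLVY-Glo substrate plus luciferin detection reagent). Measured after 105 min compound exposure at 37 °C, 5% CO2. Cells were human B cells purified from buffy-coat PBMC.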

Row | IC50 [1] [nM] | IC50 (HT-29 cells) [nM] | IC50 (hPMBC) [nM] | Compound
1 | < 100 | < 100 | < 100 | Cc1n[nH]c(CC(=O)N[C@H]2CC(=O)N3CCCC(CCOc4ccc(C)c(c4)CNC(=O)[C@H](CCc4ccccc4)NC2=O)C3)n1 (stereo partly drawn) [Compound 332, 2-(3-methyl-1H-1,2,4-triazol-5-yl)-N-((9S,12S)-5^4-methyl-8,11,14-trioxo-9-phenethyl-4-oxa-7,10-diaza-1(3,1)-piperidina-5(1,3)-benzenacyclotetradecaphane-12-yl)acetamide]
2 | < 100 | < 100 | < 100 | Cc1ccc2cc1CNC(=O)C(CCc1cnc3cccnc3c1)NC(=O)[C@@H](NC(=O)OCc1ccccc1)CC(=O)N1CCCC(CCO2)C1 (stereo partly drawn) [Compound 511, benzyl ((12S)-9-(2-(1,5-naphthyridin-3-yl)ethyl)-5^4-methyl-8,11,14-trioxo-4-oxa-7,10-diaza-1(3,1)-piperidina-5(1,3)-benzenacyclotetradecaphane-12-yl)carbamate]
